Measured values reported in paper PMC7026418, “The kinase polypharmacology landscape of clinical PARP inhibitors” (Scientific Reports, 2020).
Where two headings read alike, the source gives them in different places.

Legend:
Assay in all cases: biochemical
Design in all cases: DiscoveRx KINOMEscan active site-directed competition binding; percent of control kinase bound to immobilised ligand
[1] = molecular target: T1, ABL1(F317L)-phosphorylated (Homo sapiens, UniProt P00519, F317L)
T1 construct: phosphorylated
T1 sequence (P00519 whole entry F317L): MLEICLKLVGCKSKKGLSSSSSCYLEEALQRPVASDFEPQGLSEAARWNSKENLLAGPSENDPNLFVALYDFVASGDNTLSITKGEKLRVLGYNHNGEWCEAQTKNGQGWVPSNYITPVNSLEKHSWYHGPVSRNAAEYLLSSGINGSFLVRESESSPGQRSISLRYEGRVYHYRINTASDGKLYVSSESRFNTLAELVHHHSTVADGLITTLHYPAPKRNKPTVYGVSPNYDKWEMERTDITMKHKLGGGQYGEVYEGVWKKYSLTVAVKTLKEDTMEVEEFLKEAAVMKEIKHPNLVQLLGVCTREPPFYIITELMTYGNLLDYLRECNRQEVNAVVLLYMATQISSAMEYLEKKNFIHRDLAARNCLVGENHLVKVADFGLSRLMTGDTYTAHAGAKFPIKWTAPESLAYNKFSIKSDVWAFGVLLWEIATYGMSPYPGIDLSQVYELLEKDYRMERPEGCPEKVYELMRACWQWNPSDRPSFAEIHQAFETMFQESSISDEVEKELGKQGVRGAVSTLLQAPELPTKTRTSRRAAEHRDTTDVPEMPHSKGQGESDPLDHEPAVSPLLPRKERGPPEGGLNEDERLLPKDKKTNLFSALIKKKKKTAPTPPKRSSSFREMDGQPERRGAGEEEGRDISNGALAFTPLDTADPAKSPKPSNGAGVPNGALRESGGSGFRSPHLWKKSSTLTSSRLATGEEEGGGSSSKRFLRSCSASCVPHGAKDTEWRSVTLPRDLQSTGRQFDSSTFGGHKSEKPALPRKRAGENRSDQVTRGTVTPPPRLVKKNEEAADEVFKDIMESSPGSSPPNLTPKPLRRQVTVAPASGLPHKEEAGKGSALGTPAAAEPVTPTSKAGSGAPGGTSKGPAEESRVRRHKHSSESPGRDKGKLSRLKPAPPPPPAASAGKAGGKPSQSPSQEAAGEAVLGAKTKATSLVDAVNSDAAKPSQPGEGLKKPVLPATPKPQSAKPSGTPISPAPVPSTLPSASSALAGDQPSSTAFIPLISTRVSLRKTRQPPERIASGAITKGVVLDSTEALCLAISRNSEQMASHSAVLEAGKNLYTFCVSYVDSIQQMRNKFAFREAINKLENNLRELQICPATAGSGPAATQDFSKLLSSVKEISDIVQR

DYRK1A = DYRK1A (Homo sapiens, UniProt Q13627)
MAP3K15 = molecular target: T2, MAP3K15 (Homo sapiens, UniProt Q6ZN16)
T2 sequence (Q6ZN16 1-1313): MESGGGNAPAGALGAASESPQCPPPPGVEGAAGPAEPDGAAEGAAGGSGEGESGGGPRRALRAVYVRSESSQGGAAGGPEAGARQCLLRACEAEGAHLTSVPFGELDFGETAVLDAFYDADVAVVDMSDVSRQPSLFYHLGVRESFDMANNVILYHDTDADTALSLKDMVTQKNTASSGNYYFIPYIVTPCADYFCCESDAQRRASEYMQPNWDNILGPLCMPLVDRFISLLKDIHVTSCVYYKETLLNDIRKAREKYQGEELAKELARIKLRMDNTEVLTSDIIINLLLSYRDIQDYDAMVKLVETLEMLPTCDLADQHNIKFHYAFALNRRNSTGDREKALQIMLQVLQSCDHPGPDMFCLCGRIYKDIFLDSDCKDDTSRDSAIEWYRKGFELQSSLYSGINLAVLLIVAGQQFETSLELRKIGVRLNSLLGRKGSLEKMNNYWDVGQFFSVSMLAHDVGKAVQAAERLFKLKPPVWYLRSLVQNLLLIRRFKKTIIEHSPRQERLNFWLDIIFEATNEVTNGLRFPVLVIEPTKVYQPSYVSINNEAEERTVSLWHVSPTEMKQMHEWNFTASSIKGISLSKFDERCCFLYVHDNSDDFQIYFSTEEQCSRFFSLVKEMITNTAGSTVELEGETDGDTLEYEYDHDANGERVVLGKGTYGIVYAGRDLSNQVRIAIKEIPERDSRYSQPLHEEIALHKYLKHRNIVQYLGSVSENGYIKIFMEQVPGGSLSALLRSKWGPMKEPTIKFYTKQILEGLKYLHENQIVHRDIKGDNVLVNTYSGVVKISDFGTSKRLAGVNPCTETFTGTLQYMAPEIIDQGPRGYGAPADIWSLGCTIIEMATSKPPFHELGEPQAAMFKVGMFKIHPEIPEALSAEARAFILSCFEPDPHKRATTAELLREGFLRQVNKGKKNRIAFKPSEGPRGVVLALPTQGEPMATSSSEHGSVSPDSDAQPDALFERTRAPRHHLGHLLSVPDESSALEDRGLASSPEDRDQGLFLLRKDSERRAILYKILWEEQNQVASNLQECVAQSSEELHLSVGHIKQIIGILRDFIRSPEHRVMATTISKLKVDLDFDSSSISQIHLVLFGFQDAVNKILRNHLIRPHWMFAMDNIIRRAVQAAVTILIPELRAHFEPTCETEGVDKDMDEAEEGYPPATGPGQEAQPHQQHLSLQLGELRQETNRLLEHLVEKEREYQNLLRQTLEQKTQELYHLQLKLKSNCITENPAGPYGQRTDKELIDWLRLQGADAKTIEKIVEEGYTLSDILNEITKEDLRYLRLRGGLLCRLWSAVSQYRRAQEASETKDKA

RAF1 = RAF1 (Homo sapiens, UniProt P04049)
RAF1, sequence (P04049 whole entry): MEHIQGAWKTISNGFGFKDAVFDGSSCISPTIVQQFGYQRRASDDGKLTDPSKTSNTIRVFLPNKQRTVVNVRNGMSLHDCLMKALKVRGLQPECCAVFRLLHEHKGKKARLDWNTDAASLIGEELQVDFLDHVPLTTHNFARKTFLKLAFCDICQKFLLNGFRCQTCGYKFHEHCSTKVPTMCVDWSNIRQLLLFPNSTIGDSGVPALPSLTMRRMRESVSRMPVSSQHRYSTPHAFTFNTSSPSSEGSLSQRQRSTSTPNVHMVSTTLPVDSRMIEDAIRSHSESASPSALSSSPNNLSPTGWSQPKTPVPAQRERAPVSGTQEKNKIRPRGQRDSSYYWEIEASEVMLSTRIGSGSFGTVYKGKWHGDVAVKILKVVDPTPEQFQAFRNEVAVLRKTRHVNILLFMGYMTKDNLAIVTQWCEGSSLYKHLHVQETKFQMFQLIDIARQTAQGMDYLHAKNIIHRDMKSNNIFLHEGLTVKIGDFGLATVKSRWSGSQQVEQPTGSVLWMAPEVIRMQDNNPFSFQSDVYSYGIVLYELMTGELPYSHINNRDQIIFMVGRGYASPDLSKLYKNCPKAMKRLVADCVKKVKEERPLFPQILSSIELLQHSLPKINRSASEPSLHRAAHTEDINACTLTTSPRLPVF

TRKA = molecular target: T3, TRKA (Homo sapiens, UniProt P04629)
T3 construct: gene NTRK1
T3 sequence (P04629 whole entry): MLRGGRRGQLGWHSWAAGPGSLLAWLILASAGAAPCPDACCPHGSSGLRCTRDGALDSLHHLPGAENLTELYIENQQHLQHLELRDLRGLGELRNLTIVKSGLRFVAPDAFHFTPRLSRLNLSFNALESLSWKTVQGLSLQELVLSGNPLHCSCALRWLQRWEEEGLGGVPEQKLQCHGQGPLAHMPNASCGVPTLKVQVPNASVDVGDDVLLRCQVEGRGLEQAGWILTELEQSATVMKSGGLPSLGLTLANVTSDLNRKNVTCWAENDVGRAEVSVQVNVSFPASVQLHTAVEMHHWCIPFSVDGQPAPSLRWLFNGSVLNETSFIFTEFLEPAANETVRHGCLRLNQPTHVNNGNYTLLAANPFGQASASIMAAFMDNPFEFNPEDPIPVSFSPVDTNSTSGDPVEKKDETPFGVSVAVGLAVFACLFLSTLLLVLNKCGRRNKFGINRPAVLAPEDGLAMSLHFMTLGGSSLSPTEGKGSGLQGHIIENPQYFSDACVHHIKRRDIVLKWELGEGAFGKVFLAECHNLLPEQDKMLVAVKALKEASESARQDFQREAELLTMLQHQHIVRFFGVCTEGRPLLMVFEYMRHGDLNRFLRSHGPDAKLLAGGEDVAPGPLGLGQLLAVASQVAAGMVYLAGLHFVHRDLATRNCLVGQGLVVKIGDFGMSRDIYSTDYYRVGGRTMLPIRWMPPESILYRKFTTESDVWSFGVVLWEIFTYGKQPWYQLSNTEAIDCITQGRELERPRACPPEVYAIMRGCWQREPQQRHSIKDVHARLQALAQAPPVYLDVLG

TRKC = molecular target: T4, TRKC (Homo sapiens, UniProt Q16288)
T4 construct: gene NTRK3
T4 sequence (Q16288 whole entry): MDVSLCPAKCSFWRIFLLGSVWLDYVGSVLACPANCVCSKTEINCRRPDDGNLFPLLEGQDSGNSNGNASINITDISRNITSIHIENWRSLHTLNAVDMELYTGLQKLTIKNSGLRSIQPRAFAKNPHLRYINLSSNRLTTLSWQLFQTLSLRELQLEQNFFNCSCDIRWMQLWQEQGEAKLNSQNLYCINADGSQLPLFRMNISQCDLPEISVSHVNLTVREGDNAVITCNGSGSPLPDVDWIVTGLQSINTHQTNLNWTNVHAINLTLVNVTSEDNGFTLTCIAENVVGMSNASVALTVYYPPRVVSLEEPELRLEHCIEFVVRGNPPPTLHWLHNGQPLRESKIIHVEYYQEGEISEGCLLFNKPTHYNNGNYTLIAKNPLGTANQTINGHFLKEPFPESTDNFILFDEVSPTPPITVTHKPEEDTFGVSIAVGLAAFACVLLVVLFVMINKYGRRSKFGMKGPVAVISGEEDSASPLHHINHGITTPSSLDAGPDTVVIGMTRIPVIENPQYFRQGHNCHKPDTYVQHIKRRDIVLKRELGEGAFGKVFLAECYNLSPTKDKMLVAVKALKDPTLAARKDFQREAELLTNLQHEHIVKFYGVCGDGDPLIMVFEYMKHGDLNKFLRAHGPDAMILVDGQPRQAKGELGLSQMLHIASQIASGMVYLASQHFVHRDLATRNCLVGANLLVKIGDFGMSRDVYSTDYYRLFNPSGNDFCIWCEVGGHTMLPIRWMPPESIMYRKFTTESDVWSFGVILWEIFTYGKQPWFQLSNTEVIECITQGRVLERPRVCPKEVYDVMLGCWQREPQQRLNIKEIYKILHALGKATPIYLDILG

[2] = read-out: Talazoparib (BMN 673) / %Ctrl @ 10000nM
[3] = read-out: Olaparib / %Ctrl @ 10000nM
[4] = read-out: Rucaparib / %Ctrl @ 10000nM, binding competition, % of control
[5] = read-out: Niraparib (MK-4827) / %Ctrl @ 10000nM

## Cn1ncnc1[C@H]1c2n[nH]c(=O)c3cc(F)cc(c23)N[C@@H]1c1ccc(F)cc1 [Talazoparib]
[1]; [2]
  percent of control binding at 10 µM: 50%
DYRK1A; [2]
  percent of control binding at 10 µM: 94%
MAP3K15; [2]
  percent of control binding at 10 µM: 100%
RAF1; [2]
  percent of control binding at 10 µM: 90%
TRKA; [2]
  percent of control binding at 10 µM: 100%
TRKC; [2]
  percent of control binding at 10 µM: 100%

## O=C(c1cc(Cc2n[nH]c(=O)c3ccccc23)ccc1F)N1CCN(C(=O)C2CC2)CC1 [Olaparib]
[1]; [3]
  percent of control binding at 10 µM: 95%
DYRK1A; [3]
  percent of control binding at 10 µM: 95%
MAP3K15; [3]
  percent of control binding at 10 µM: 100%
RAF1; [3]
  percent of control binding at 10 µM: 89%
TRKA; [3]
  percent of control binding at 10 µM: 91%
TRKC; [3]
  percent of control binding at 10 µM: 92%

## CNCc1ccc(-c2[nH]c3cc(F)cc4c3c2CCNC4=O)cc1 [Rucaparib]
[1]; [4]
  percent of control binding at 10 µM: 74%
DYRK1A; [4]
  percent of control binding at 10 µM: 0.4%
MAP3K15; [4]
  percent of control binding at 10 µM: 73%
RAF1; [4]
  percent of control binding at 10 µM: 99%
TRKA; [4]
  percent of control binding at 10 µM: 74%
TRKC; [4]
  percent of control binding at 10 µM: 88%

## NC(=O)c1cccc2cn(-c3ccc([C@@H]4CCCNC4)cc3)nc12 [Niraparib]
[1]; [5]
  percent of control binding at 10 µM: 100%
DYRK1A; [5]
  percent of control binding at 10 µM: 0.2%
MAP3K15; [5]
  percent of control binding at 10 µM: 64%
RAF1; [5]
  percent of control binding at 10 µM: 93%
TRKA; [5]
  percent of control binding at 10 µM: 99%
TRKC; [5]
  percent of control binding at 10 µM: 95%
